In brackets after ≈: the same amount, converted by molar mass.
Key:
Assay in all cases: in vitro agar dilution test (MIC)
Type in all cases: cell-based
[1] = tested on: Staphylococcus FU 79-19-2β^+; details: Staphylococcus, Mueller-Hinton agar, read-out: MIC
Description: (§1) The compounds of the present invention are active antibacterial agents as established in the in vitro agar dilution test using Mueller-Hinton agar. The test compounds were dissolved in a mixture of dimethyl sulfoxide and aqueous sodium bicarbonate and applied as 1 ml of drug solution plus 9 ml of agar per plate. The innoculum was a 5 hour TSB shake culture diluted to 10^-2 with Mueller-Hinton broth and applied to the plates with a Steers' Replicator.
(§2) The results of this test on representative compounds of this invention (identified by Example Number) against a variety of microorganisms appear in Tables I and II in terms of minimal inhibitory concentration (MIC) in mcg/ml together with Cefotaxime, Cephalothin and Ampicillin as positive controls.

[2] = tested on: Escherichia coli ATCC 25922; details: ATCC25922, Escherichia coli ATCC 25922, Mueller-Hinton agar, Table I
Description: as §1, §2

Staphylococcus Smith = details: Staphylococcus, Mueller-Hinton agar, Table I, read-out: MIC
Description: as §1, §2

[3] = tested on: Providencia stuarti SSC 80-78; details: SSC8078, Mueller-Hinton agar
Description: as §1, §2

[4] = tested on: Enterobacter cloacae K 79-16; details: K7916, Enterobacter cloacae K 79-16, Mueller-Hinton agar
Description: as §1, §2

[5] = tested on: Pseudomonas aeruginosa ATCC 27853; details: Pseudomonas aeruginosa, ATCC27853, Pseudomonas aeruginosa ATCC 27853; Mueller-Hinton agar; read-out: MIC
Description: as §1, §2

[6] = tested on: Escherichia coli STFD 79-20; details: STFD7920, Escherichia coli STFD 79-20, Mueller-Hinton agar
Description: as §1, §2

[7] = tested on: Enterobacter aerogenes STFD 79-14; details: Klebsiella aerogenes, STFD7914, Enterobacter aerogenes STFD 79-14; Mueller-Hinton agar
Description: as §1, §2

Klebsiella STFD 79-6 = details: STFD796, Klebsiella STFD 79-6, Mueller-Hinton agar
Description: as §1, §2

Escherichia coli 311 = details: Escherichia coli, 311, Escherichia coli 311; Mueller-Hinton agar
Description: as §1, §2

[8] = tested on: Escherichia coli ESS 22-31; details: ESS2231, Mueller-Hinton agar
Description: as §1, §2

Acinetobacter K 77-1 = details: K771, Acinetobacter K 77-1, Mueller-Hinton agar
Description: as §1, §2

Klebsiella SSC 78-1 = details: SSC781, Klebsiella SSC 78-1, Mueller-Hinton agar
Description: as §1, §2

[9] = tested on: Salmonella ariz. QHC 77-3; details: Mueller-Hinton agar
Description: as §1, §2

Enterococcus SM 77-15 = details: SM7715, Enterococcus SM 77-15, Mueller-Hinton agar
Description: as §1, §2

Enterococcus OSU 75-1 = details: Enterococcus, OSU751, Enterococcus OSU 75-1; Mueller-Hinton agar; read-out: MIC
Description: as §1, §2

Serratia TUL 78-15 = details: TUL7815, Serratia TUL 78-15, Mueller-Hinton agar
Description: as §1, §2

[10] = tested on: Providencia stuarti K 81-29; details: K8129, Mueller-Hinton agar
Description: as §1, §2

Proteus morganii K 79-25 = details: Morganella morganii, K7925, Proteus morganii K 79-25; Mueller-Hinton agar
Description: as §1, §2

Pseudomonas SSC 78-13 = details: SSC7813, Mueller-Hinton agar
Description: as §1, §2

Klebsiella pneumoniae AD = details: Mueller-Hinton agar, Table I
Description: as §1, §2

Serratia QHC 77-2 = details: QHC772, Serratia QHC 77-2, Mueller-Hinton agar
Description: as §1, §2

[11] = tested on: Micrococcus lutea PCI 1001; details: PCI1001, Micrococcus lutea PCI 1001, Mueller-Hinton agar
Description: as §1, §2

[12] = tested on: Staphylococcus SSC 79-18β^-; details: Mueller-Hinton agar
Description: as §1, §2

Pseudomonas 12-4-4 = details: Pseudomonas, 1244, Pseudomonas 12-4-4; Mueller-Hinton agar; read-out: MIC
Description: as §1, §2

Acinetobacter STFD 79-17 = details: Acinetobacter, STFD7917, Acinetobacter STFD 79-17; Mueller-Hinton agar; read-out: MIC
Description: as §1, §2

Proteus rettgheri K 77-6 = details: Mueller-Hinton agar
Description: as §1, §2

[13] = tested on: Staphylococcus ATCC 25923; details: ATCC25923, Staphylococcus ATCC 25923, Mueller-Hinton agar, Table I
Description: as §1, §2

Salmonella SSC 79-57 = details: SSC7957, Mueller-Hinton agar
Description: as §1, §2

## CO/N=C(\C(=O)N[C@@H]1C(=O)N2C(C(=O)O)=C(CSc3nnsc3C(C)(C)C)CS[C@H]12)c1csc(N)n1 [Example 6, (Z)-7-[[(2-Amino-4-thiazolyl)(methoxyimino)acetyl]amino]-3-[[[5-(1,1-dimethylethyl)-1,2,3-thiadiazol-4-yl]thio]methyl]-8-oxo-5-thia-1-azabicyclo[4.2.0]oct-2-ene-2-carboxylic acid]
[1]
  MIC: 16 mg/L (≈ 28.1 µM)
[2]
  MIC: 2 mg/L (≈ 3.51 µM)
Staphylococcus Smith
  MIC: 2 mg/L (≈ 3.51 µM)
[3]
  MIC: 5 mg/L (≈ 8.78 µM)
[4]
  MIC: 1 mg/L (≈ 1.76 µM)
[5]
  MIC: 128 mg/L (≈ 225 µM)
[6]
  MIC: 0.5 mg/L (≈ 0.878 µM)
[7]
  MIC: 4 mg/L (≈ 7.02 µM)
Klebsiella STFD 79-6
  MIC: 2 mg/L (≈ 3.51 µM)
Escherichia coli 311
  MIC: 0.5 mg/L (≈ 0.878 µM)
[8]
  MIC: 0.5 mg/L (≈ 0.878 µM)
Acinetobacter K 77-1
  MIC: 32 mg/L (≈ 56.2 µM)
Klebsiella SSC 78-1
  MIC: 1 mg/L (≈ 1.76 µM)
[9]
  MIC: 2 mg/L (≈ 3.51 µM)
Enterococcus SM 77-15
  MIC: 128 mg/L (≈ 225 µM)
Enterococcus OSU 75-1
  MIC: 256 mg/L (≈ 449 µM)
Serratia TUL 78-15
  MIC: 8 mg/L (≈ 14 µM)
[10]
  MIC: 1 mg/L (≈ 1.76 µM)
Proteus morganii K 79-25
  MIC: 16 mg/L (≈ 28.1 µM)
Pseudomonas SSC 78-13
  MIC: 64 mg/L (≈ 112 µM)
Klebsiella pneumoniae AD
  MIC: 0.25 mg/L (≈ 0.439 µM)
Serratia QHC 77-2
  MIC: 8 mg/L (≈ 14 µM)
[11]
  MIC: 0.25 mg/L (≈ 0.439 µM)
[12]
  MIC: 1 mg/L (≈ 1.76 µM)
Pseudomonas 12-4-4
  MIC: 64 mg/L (≈ 112 µM)
Acinetobacter STFD 79-17
  MIC: 32 mg/L (≈ 56.2 µM)
Proteus rettgheri K 77-6
  MIC: ≤ 0.12 mg/L
[13]
  MIC: 4 mg/L (≈ 7.02 µM)
Salmonella SSC 79-57
  MIC: 8 mg/L (≈ 14 µM)

Source: patent US4927922A, “7β-(substituted)amino-3-substituted cephalosporanic acids and esters” (American Cyanamid Company, priority 1988, dated 1990)
